The record followed here is patent publication US20140058103A1, “Inhibitors of PI3K-Delta and Methods of Their Use and Manufacture” (Exelixis, Inc., priority 2010, published 2014).

The structures appear in SMILES notation. Where only a bound is given, the exact number is not on record here.

PI3K delta, sequence (O00329 whole entry): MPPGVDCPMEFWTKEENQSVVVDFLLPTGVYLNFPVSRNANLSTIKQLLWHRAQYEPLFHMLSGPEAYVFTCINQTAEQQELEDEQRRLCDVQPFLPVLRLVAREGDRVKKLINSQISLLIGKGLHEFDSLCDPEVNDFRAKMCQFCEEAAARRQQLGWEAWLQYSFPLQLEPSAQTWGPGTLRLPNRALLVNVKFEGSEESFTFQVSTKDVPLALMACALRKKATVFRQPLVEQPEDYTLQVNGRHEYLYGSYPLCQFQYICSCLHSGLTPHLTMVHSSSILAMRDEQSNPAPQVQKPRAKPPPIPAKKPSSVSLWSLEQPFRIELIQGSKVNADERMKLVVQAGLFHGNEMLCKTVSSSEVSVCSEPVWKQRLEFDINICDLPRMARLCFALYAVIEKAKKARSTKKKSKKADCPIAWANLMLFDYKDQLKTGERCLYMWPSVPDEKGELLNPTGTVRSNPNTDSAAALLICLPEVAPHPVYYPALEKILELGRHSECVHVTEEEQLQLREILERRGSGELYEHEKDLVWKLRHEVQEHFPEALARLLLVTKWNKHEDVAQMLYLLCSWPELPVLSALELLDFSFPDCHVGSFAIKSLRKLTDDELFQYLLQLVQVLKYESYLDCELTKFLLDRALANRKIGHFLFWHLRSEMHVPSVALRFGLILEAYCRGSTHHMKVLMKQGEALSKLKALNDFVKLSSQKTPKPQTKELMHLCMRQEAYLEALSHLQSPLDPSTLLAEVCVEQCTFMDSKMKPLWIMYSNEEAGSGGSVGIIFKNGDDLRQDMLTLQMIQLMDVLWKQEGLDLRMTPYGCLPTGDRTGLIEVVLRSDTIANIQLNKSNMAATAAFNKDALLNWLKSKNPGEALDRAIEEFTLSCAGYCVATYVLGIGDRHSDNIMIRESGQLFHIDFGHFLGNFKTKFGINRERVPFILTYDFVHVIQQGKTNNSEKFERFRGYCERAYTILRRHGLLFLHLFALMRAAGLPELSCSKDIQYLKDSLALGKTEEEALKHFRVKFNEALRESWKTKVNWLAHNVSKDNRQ
PI3K delta, sequence (P27986 whole entry partner): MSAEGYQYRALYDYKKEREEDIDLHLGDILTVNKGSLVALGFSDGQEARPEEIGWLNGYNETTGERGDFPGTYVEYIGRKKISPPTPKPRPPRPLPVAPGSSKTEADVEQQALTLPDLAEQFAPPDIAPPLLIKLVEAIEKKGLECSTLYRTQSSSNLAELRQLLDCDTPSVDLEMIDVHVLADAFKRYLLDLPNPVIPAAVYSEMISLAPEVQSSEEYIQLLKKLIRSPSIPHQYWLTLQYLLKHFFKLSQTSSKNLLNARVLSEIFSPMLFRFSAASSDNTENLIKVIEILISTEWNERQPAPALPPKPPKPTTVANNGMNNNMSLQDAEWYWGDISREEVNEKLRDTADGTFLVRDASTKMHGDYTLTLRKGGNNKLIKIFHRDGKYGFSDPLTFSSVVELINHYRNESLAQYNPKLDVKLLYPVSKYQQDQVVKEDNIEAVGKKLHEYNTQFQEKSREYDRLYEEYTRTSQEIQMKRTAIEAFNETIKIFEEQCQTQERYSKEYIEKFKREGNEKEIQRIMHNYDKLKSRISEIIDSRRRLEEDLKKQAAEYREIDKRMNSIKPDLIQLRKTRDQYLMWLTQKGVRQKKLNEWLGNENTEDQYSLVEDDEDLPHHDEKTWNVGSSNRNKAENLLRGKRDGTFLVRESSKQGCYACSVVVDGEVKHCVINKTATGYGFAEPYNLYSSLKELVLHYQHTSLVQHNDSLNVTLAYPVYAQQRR

For the assay, the target named is PI3K delta (Homo sapiens, UniProt O00329). The experiment in a line: Luciferase-coupled chemiluminescence kinase assay (ATP consumption, KinaseGlo). The class given is biochemical. The procedure: Kinase activity and compound inhibition were investigated using one or more of the assay formats described below. The ATP concentrations used in the various assays were approximately equal to or less than the KM for each of the respective kinases. Dose-response experiments were performed using an intra-plate dilution scheme with 10 different inhibitor concentrations in a 384-well microtiter plate. IC50 values were calculated by nonlinear regression analysis using the four-parameter equation listed below:
Y=min+(max−min)/(1+(X/IC50)^N) Equation 1
Typically N should approximate unity. Curve fitting was performed using XLFit or ActivityBase.
Kinase activity is measured as the percent of ATP consumed following the kinase reaction using luciferase-luciferin-coupled chemiluminescence. […] Kinase reactions were initiated by combining test compounds, kinase, and ATP in a 20 μL volume (6 μL volume for 1536-well plate). The reaction mixture was incubated at ambient temperature for 2 h. Following the kinase reaction, a 20 μL (or […] for 1536-well plate) aliquot of KinaseGlo (Promega) was added and the chemiluminescence signal measured using an EnVision plate reader (Perkin Elmer).
On the technique in general: Kinase-Glo reads ATP consumption through a luciferase reaction.
As to `CCn1c(C(=O)N[C@H]2CC[C@H](O)CC2)nc2c(N3CCC(n4c(=O)[nH]c5ncccc54)CC3)ncnc21` [Compound 328, 9-ethyl-N-(trans-4-hydroxycyclohexyl)-6-[4-(2-oxo-2,3-dihydro-1H-imidazo[4,5-b]pyridin-1-yl)piperidin-1-yl]-9H-purine-8-carboxamide], the half-inhibitory concentration (IC50) is less than 50 nM.

On to `Cn1c(C(=O)N2CCCC2)nc2c(N3CCC4(CC3)C(=O)NCN4c3ccccc3)ncnc21` [Compound 8, 8-[9-methyl-8-(pyrrolidin-1-ylcarbonyl)-9H-purin-6-yl]-1-phenyl-1,3,8-triazaspiro[4.5]decan-4-one], for which the half-maximal inhibitory concentration (IC50) lay within 250 to 500 nM.

Consider `CCn1c(C(=O)NCc2nnc(C)o2)nc2c(N3CCC4(CC3)C(=O)Nc3ccccc34)ncnc21` [Compound 207, 9-ethyl-N-[(5-methyl-1,3,4-oxadiazol-2-yl)methyl]-6-(2-oxo-1,2-dihydro-1′H-spiro[indole-3,4′-piperidin]-1′-yl)-9H-purine-8-carboxamide], for which the IC50 is 250 to 500 nM.

As to `CC(C)NC(=O)c1nc2c(N3CCC(n4c(=O)[nH]c5ccccc54)CC3)ncnc2n1C` [Compound 54, 9-methyl-N-(1-methylethyl)-6-[4-(2-oxo-2,3-dihydro-1H-benzimidazol-1-yl)piperidin-1-yl]-9H-purine-8-carboxamide], the IC50 fell in the range of 50 to 250 nM.

For the molecule `Cn1cc(-c2nc3c(N4CCN(S(=O)(=O)c5ccccc5Cl)CC4)ncnc3n2C)cn1` [Compound 375, 6-{4-[(2-chlorophenyl)sulfonyl]piperazin-1-yl}-9-methyl-8-(1-methyl-1H-pyrazol-4-yl)-9H-purine], the IC50 was 250 to 500 nM.

`Cn1c(C(=O)NCC(C)(C)C)nc2c(N3CCC4(CC3)C(=O)Nc3ccccc34)ncnc21` [Compound 96, N-(2,2-dimethylpropyl)-9-methyl-6-(2-oxo-1,2-dihydro-1′H-spiro[indole-3,4′-piperidin]-1′-yl)-9H-purine-8-carboxamide] showed an IC50 of 50 to 250 nM.

Take `CN(C)C(=O)c1nc2c(N3CCC4(CC3)C(=O)NCN4c3ccccc3)ncnc2n1C` [Compound 7, N,N,9-Trimethyl-6-(4-oxo-1-phenyl-1,3,8-triazaspiro[4.5]dec-8-yl)-9H-purine-8-carboxamide]: the half-inhibitory concentration (IC50) was 500 to 1500 nM.

`Cn1cc(-c2nc3c(N4CCN(S(=O)(=O)c5cccc(Cl)c5Cl)CC4)ncnc3n2C)cn1` [Compound 389, 6-{4-[(2,3-dichlorophenyl)sulfonyl]piperazin-1-yl}-9-methyl-8-(1-methyl-1H-pyrazol-4-yl)-9H-purine] returned an IC50 of 250 to 500 nM.

In turn, `CCn1c(C(=O)NCCC(C)C)nc2c(N3CCC4(CC3)C(=O)Nc3ccccc34)ncnc21` [Compound 225, 9-ethyl-N-(3-methylbutyl)-6-(2-oxo-1,2-dihydro-1′H-spiro[indole-3,4′-piperidin]-1′-yl)-9H-purine-8-carboxamide] had a 50% inhibitory concentration (IC50) of 50 to 250 nM.

As to `CCn1c(C(=O)NCCCCO)nc2c(N3CCC4(CC3)C(=O)Nc3ccccc34)ncnc21` [Compound 222, 9-ethyl-N-(4-hydroxybutyl)-6-(2-oxo-1,2-dihydro-1′H-spiro[indole-3,4′-piperidin]-1′-yl)-9H-purine-8-carboxamide], the 50% inhibitory concentration (IC50) fell in the range of 50 to 250 nM.

As to `C#CCNC(=O)c1nc2c(N3CCC4(CC3)C(=O)Nc3ccccc34)ncnc2n1C` [Compound 140, 9-methyl-6-(2-oxo-1,2-dihydro-1′H-spiro[indole-3,4′-piperidin]-1′-yl)-N-prop-2-yn-1-yl-9H-purine-8-carboxamide], the IC50 lay within 50 to 250 nM.

For `Cn1c(-c2ccnnc2)nc2c(N3CCC(n4c(=O)[nH]c5ccccc54)CC3)ncnc21` [Compound 280, 1-[1-(9-methyl-8-pyridazin-4-yl-9H-purin-6-yl)piperidin-4-yl]-1,3-dihydro-2H-benzimidazol-2-one], the concentration for half-maximal inhibition (IC50) is 50 to 250 nM.

`CCn1c(-c2cncnc2)nc2c(N3CCC(n4c(=O)[nH]c5ccccc54)CC3)ncnc21` [Compound 294, 1-[1-(9-ethyl-8-pyrimidin-5-yl-9H-purin-6-yl)piperidin-4-yl]-1,3-dihydro-2H-benzimidazol-2-one] gave an IC50 of less than 50 nM.

Regarding `Cn1c(CNC(=O)OC(C)(C)C)nc2c(N3CCC(n4c(=O)[nH]c5ccccc54)CC3)ncnc21` [Compound 339, 1,1-dimethylethyl ({9-methyl-6-[4-(2-oxo-2,3-dihydro-1H-benzimidazol-1-yl)piperidin-1-yl]-9H-purin-8-yl}methyl)carbamate], the IC50 was 500 to 1500 nM.

Take `CCn1c(C(=O)N2CC[C@@H](F)C2)nc2c(N3CCC4(CC3)C(=O)Nc3ccccc34)ncnc21` [Compound 213]: the IC50 is less than 50 nM.

In turn, `CCn1c(C(=O)NCCCCO)nc2c(N3CCC(n4c(=O)[nH]c5ccccc54)CC3)ncnc21` [Compound 195, 9-ethyl-N-(4-hydroxybutyl)-6-[4-(2-oxo-2,3-dihydro-1H-benzimidazol-1-yl)piperidin-1-yl]-9H-purine-8-carboxamide] came in with an IC50 of less than 50 nM.

Turning to `Cn1c(-c2ccco2)nc2c(N3CCC(n4c(=O)[nH]c5ccccc54)CC3)ncnc21` [Compound 116, 1-[1-(8-furan-2-yl-9-methyl-9H-purin-6-yl)piperidin-4-yl]-1,3-dihydro-2H-benzimidazol-2-one], the half-inhibitory concentration (IC50) was in the range of 250 to 500 nM.

The molecule `Cn1c(C(=O)N[C@H]2CC[C@H](O)CC2)nc2c(N3CCC4(CC3)C(=O)Nc3ccccc34)ncnc21` [Compound 87, N-(trans-4-hydroxycyclohexyl)-9-methyl-6-(2-oxo-1,2-dihydro-1′H-spiro[indole-3,4′-piperidin]-1′-yl)-9H-purine-8-carboxamide] had an IC50 of less than 50 nM.

Molecule `Cn1c(C(=O)NC(C)(C)C)nc2c(N3CCC4(CC3)C(=O)Nc3ccccc34)ncnc21` [Compound 75, N-(1,1-dimethylethyl)-9-methyl-6-(2-oxo-1,2-dihydro-1′H-spiro[indole-3,4′-piperidin]-1′-yl)-9H-purine-8-carboxamide] yielded a 50% inhibitory concentration (IC50) of 50 to 250 nM.

As to `CC(C)N(C)C(=O)c1nc2c(N3CCC4(CC3)C(=O)Nc3ccccc34)ncnc2n1C` [Compound 38, N,9-dimethyl-N-(1-methylethyl)-6-(2-oxo-1,2-dihydro-1′H-spiro[indole-3,4′-piperidin]-1′-yl)-9H-purine-8-carboxamide], the IC50 is 500 to 1500 nM.

`Cc1ccc(S(=O)(=O)N2CCN(c3ncnc4c3nc(-c3cnn(C)c3)n4C)CC2)cc1` [Compound 370, 9-methyl-6-{4-[(4-methylphenyl)sulfonyl]-piperazin-1-yl)-8-(1-methyl-1H-pyrazol-4-yl)-9H-purine] returned an IC50 of 500 to 1500 nM.

As for `CCn1c(-c2cnc(C)nc2)nc2c(N3CCC(n4c(=O)[nH]c5ccccc54)CC3)ncnc21` [Compound 342, 1-{1-[9-ethyl-8-(2-methylpyrimidin-5-yl)-9H-purin-6-yl]piperidin-4-yl}-1,3-dihydro-2H-benzimidazol-2-one], the half-maximal inhibitory concentration (IC50) is less than 50 nM.

In turn, `CC(C)CCNC(=O)c1nc2c(N3CCC(n4c(=O)[nH]c5ccccc54)CC3)ncnc2n1C` [Compound 72, 9-methyl-N-(3-methylbutyl)-6-[4-(2-oxo-2,3-dihydro-1H-benzimidazol-1-yl)piperidin-1-yl]-9H-purine-8-carboxamide] gave a concentration for half-maximal inhibition (IC50) of 50 to 250 nM.

Turning to `CCCCCCNC(=O)c1nc2c(N3CCC(n4c(=O)[nH]c5ccccc54)CC3)ncnc2n1C` [Compound 71, N-hexyl-9-methyl-6-[4-(2-oxo-2,3-dihydro-1H-benzimidazol-1-yl)piperidin-1-yl]-9H-purine-8-carboxamide], the IC50 was in the range of 250 to 500 nM.

Take `Cn1c(-c2nnc(C3CC3)o2)nc2c(N3CCC(n4c(=O)[nH]c5ccccc54)CC3)ncnc21` [Compound 125, 1-{1-[8-(5-cyclopropyl-1,3,4-oxadiazol-2-yl)-9-methyl-9H-purin-6-yl]piperidin-4-yl}-1,3-dihydro-2H-benzimidazol-2-one]: the IC50 was less than 50 nM.

Turning to `CN(C)CCOc1cccc2c1[nH]c(=O)n2C1CCN(c2ncnc3c2nc(C(=O)NCC2CC2)n3C)CC1` [Compound 276, N-(cyclopropylmethyl)-6-[4-(4-{[2-(dimethylamino)ethyl]oxy}-2-oxo-2,3-dihydro-1H-benzimidazol-1-yl)piperidin-1-yl]-9-methyl-9H-purine-8-carboxamide], the IC50 fell in the range of 250 to 500 nM.

`COc1ccc(CNC(=O)c2nc3c(N4CCC(n5c(=O)[nH]c6ccccc65)CC4)ncnc3n2C)cc1` [Compound 59, 9-methyl-N-{[4-(methyloxy)phenyl]methyl}-6-[4-(2-oxo-2,3-dihydro-1H-benzimidazol-1-yl)piperidin-1-yl]-9H-purine-8-carboxamide] gave an IC50 of 250 to 500 nM.

Molecule `Cc1[nH]ncc1-c1nc2c(N3CCC(n4c(=O)[nH]c5ccccc54)CC3)ncnc2n1C` [Compound 242, 1-{1-[9-methyl-8-(5-methyl-1H-pyrazol-4-yl)-9H-purin-6-yl]piperidin-4-yl}-1,3-dihydro-2H-benzimidazol-2-one] displayed a 50% inhibitory concentration (IC50) of less than 50 nM.

Take `Cn1c(C(=O)NCC2CC2)nc2c(N3CCC4(CC3)C(=O)Cc3ccccc34)ncnc21` [Compound 120, N-(cyclopropylmethyl)-9-methyl-6-(2-oxo-2,3-dihydro-1′H-spiro[indene-1,4′-piperidin]-1′-yl)-9H-purine-8-carboxamide]: the concentration for half-maximal inhibition (IC50) fell in the range of 50 to 250 nM.

Regarding `CC(C)NC(=O)c1nc2c(N3CCC4(CC3)C(=O)Nc3ccccc34)ncnc2n1C` [Compound 24, 9-methyl-N-(1-methylethyl)-6-(2-oxo-1,2-dihydro-1′H-spiro[indole-3,4′-piperidin]-1′-yl)-9H-purine-8-carboxamide], the IC50 is 50 to 250 nM.

The IC50 is the midpoint of a concentration-inhibition curve. A higher IC50 goes with lower potency.
